Data taken from US9040573B2, “Anti-fungal agent” (Nihon Nohyaku Co., Ltd., priority 2011, dated 2015).
≈ marks a conversion by molar mass, not a printed value. Where two headings read alike, the source gives them in different places.

What was measured:
Scytalidium hyalinum = experiment: Antifungal Activity Test 2: MIC by broth microdilution method (Alamar Blue); format: cell-based
Experimental: (§1) The minimum inhibitory concentration (MIC) was measured by a broth microdilution method. That is, RPMI1640 medium (Sigma-Aldrich) was buffered with 0.165 M morpholine propanesulfonic acid (MOPS, Wako Pure Chemical Industries, Ltd.) to pH 7.0, and a given amount of a solution of the drug in DMSO was added thereto to prepare 2-fold dilution series within the range of 0.00098-4 μg/mL. This was added to a 96-well microplate by 100 μL, a fungal inoculum solution (100 μL, final concentration of fungi to be added: 1.0×10^4 cells/mL) was added, and the mixture was cultured at 35° C. An Alamar Blue reagent was added in advance to the culture medium (final addition concentration: 10%) and, at the time point when the Alamar Blue reagent in the drug-free growth control group changed from blue to red, the culture was discontinued and the absorbance (differential optical density at 570 nm based on 590 nm served as reference) measured. The minimum concentration of the drug that inhibited the growth of the fungus in the growth control group by 80% or more was taken as MIC. The concentration to be MIC (MIC90) in 9 strains out of the 10 strains (90%) measured was determined.
Scytalidium hyalinum strain of clinical isolate available from CBS (Netherlands) was used. The fungus was pre-cultured in an SDA medium, 0.1% (w/v) Tween 80-containing sterile saline was added to give a suspension, which was filtered through gauze to collect arthrospore. This was suspended in 0.1% (w/v) Tween 80-containing sterile saline, and added to a 20% Alamar Blue-containing medium to 2×10^4 cells/mL to give a fungal inoculum solution.
(§2) Each drug was used after dissolving in DMSO (dimethyl sulfoxide).
The test method was the same as in the aforementioned antifungal activity test 1, and the minimum concentration of the drug that inhibited the growth of the fungus in the growth control group by 80% or more was taken as MIC. The MIC range of the 4 strains measured and the geometric mean (GM) of each drug were determined.

Scytalidium dimidiatum = experiment: Antifungal Activity Test 1: MIC by broth microdilution method (Alamar Blue); format: cell-based; settings: for MIC: growth inhibited by 80% or more; for MIC90: concentration to be MIC in 9 strains out of the 10 strains (90%)
Source text: Scytalidium dimidiatum strain of clinical isolate obtained by separation and identification from nail or stratum corneum of patients with superficial mycosis was used. The fungi pre-cultured on an SDA medium was suspended in 0.1% (w/v) Tween 80-containing sterile saline and the suspension was filtered through gauze to collect arthrospore. This was suspended in 0.1% (w/v) Tween 80-containing sterile saline, and added to a 20% Alamar Blue-containing medium to 2×10^4 cells/mL to give a fungal inoculum solution.
as §2, §1
Reference documents for measurement method: Takako Shinoda et al.: opinion proposed by Committee for Clinical Laboratory Standards of The Japanese Society for Medical Mycology (1995-1997), Method for antifungal susceptibility testing of filamentous fungus, Medical Mycology Journal, 40: 239-257, 1999. Clinical Laboratory Standards Institute/National Committee for Clinical Laboratory Standards. Reference method for broth dilution antifungal susceptibility testing of filamentous fungus. Approved Standard M38-A2. Wayne, Pa.: National Committee for Clinical Laboratory Standards, 2008. Test Results

[1] = Neoscytalidium hyalinum, clinical isolate CBS200.88, growth inhibited by 80% or more, read-out: MIC
[2] = Neoscytalidium hyalinum, clinical isolate CBS545.95, growth inhibited by 80% or more, read-out: MIC
[3] = Neoscytalidium hyalinum, clinical isolate CBS601.85, growth inhibited by 80% or more, read-out: MIC
[4] = Neoscytalidium hyalinum, clinical isolate CBS619.84, growth inhibited by 80% or more, read-out: MIC
[5] = Neoscytalidium hyalinum, geometric mean of the 4 strains measured, read-out: GM (geometric mean of MIC)
[6] = Neoscytalidium hyalinum, range of the 4 strains measured, read-out: MIC range
[7] = Neoscytalidium dimidiatum, clinical isolate 530129, read-out: MIC
[8] = Neoscytalidium dimidiatum, clinical isolate 530142, read-out: MIC
[9] = Neoscytalidium dimidiatum, clinical isolate 530251, read-out: MIC
[10] = Neoscytalidium dimidiatum, clinical isolate 530621, read-out: MIC
[11] = Neoscytalidium dimidiatum, clinical isolate 530633, read-out: MIC
[12] = Neoscytalidium dimidiatum, clinical isolate 530914, read-out: MIC
[13] = Neoscytalidium dimidiatum, clinical isolate 530946, read-out: MIC
[14] = Neoscytalidium dimidiatum, clinical isolate 530999, read-out: MIC
[15] = Neoscytalidium dimidiatum, clinical isolate 531581, read-out: MIC
[16] = Neoscytalidium dimidiatum, clinical isolate 531869, read-out: MIC
[17] = Neoscytalidium dimidiatum, read-out: MIC90

MIC (Scytalidium hyalinum; [1]) [µg/mL]	MIC (Scytalidium hyalinum; [2]) [µg/mL]	MIC (Scytalidium hyalinum; [3]) [µg/mL]	MIC (Scytalidium hyalinum; [4]) [µg/mL]	MIC (Scytalidium hyalinum; [5]) [µg/mL]	MIC (Scytalidium hyalinum; [6]) [µg/mL]	MIC (Scytalidium dimidiatum; [7]) [µg/mL]	MIC (Scytalidium dimidiatum; [8]) [µg/mL]	MIC (Scytalidium dimidiatum; [9]) [µg/mL]	MIC (Scytalidium dimidiatum; [10]) [µg/mL]	MIC (Scytalidium dimidiatum; [11]) [µg/mL]	MIC (Scytalidium dimidiatum; [12]) [µg/mL]	MIC (Scytalidium dimidiatum; [13]) [µg/mL]	MIC (Scytalidium dimidiatum; [14]) [µg/mL]	MIC (Scytalidium dimidiatum; [15]) [µg/mL]	MIC (Scytalidium dimidiatum; [16]) [µg/mL]	MIC90 (Scytalidium dimidiatum; [17]) [µg/mL]	SMILES	other results
2 (≈ 6.3 µM)	2 (≈ 6.3 µM)	2 (≈ 6.3 µM)	2 (≈ 6.3 µM)	2 (≈ 6.3 µM)	2 (≈ 6.3 µM)	0.5 (≈ 1.57 µM)	1 (≈ 3.15 µM)	2 (≈ 6.3 µM)	1 (≈ 3.15 µM)	0.5 (≈ 1.57 µM)	2 (≈ 6.3 µM)	1 (≈ 3.15 µM)	1 (≈ 3.15 µM)	0.5 (≈ 1.57 µM)	0.5 (≈ 1.57 µM)	2 (≈ 6.3 µM)	CCC(C)(C)c1ccc(CC(C)CN2C[C@@H](C)O[C@@H](C)C2)cc1 (stereo partly drawn) [AMO, amorolfine]	
> 4	> 4	2 (≈ 6.53 µM)	> 4	> 4		> 4	> 4	> 4	> 4	> 4	> 4	> 4	> 4	> 4	> 4	> 4	OC(Cn1cncn1)(Cn1cncn1)c1ccc(F)cc1F [FCZ, fluconazole]	

The remaining lines, values behind:

SMILES	MIC (Scytalidium hyalinum; [1]) [µg/mL]	MIC (Scytalidium hyalinum; [2]) [µg/mL]	MIC (Scytalidium hyalinum; [3]) [µg/mL]	MIC (Scytalidium hyalinum; [4]) [µg/mL]	MIC (Scytalidium hyalinum; [5]) [µg/mL]	MIC (Scytalidium hyalinum; [6]) [µg/mL]	MIC (Scytalidium dimidiatum; [7]) [µg/mL]	MIC (Scytalidium dimidiatum; [8]) [µg/mL]	MIC (Scytalidium dimidiatum; [9]) [µg/mL]	MIC (Scytalidium dimidiatum; [10]) [µg/mL]	MIC (Scytalidium dimidiatum; [11]) [µg/mL]	MIC (Scytalidium dimidiatum; [12]) [µg/mL]	MIC (Scytalidium dimidiatum; [13]) [µg/mL]	MIC (Scytalidium dimidiatum; [14]) [µg/mL]	MIC (Scytalidium dimidiatum; [15]) [µg/mL]	MIC (Scytalidium dimidiatum; [16]) [µg/mL]	MIC90 (Scytalidium dimidiatum; [17]) [µg/mL]	other results
C[C@@H]1[C@H](O)[C@@H](C)/C=C/C=C/C=C/C=C/C=C/C=C/C=C/[C@H](O[C@@H]2O[C@H](C)[C@@H](O)[C@H](N)[C@@H]2O)C[C@@H]2O[C@](O)(C[C@@H](O)C[C@@H](O)[C@H](O)CC[C@@H](O)C[C@@H](O)CC(=O)O[C@H]1C)C[C@H](O)[C@H]2C(=O)O [AMPB, amphotericin B]																		MIC (Scytalidium hyalinum; clinical isolate CBS200.88, growth inhibited by 80% or more): 0.5 µg/mL (≈ 0.541 µM); MIC (Scytalidium hyalinum; clinical isolate CBS545.95, growth inhibited by 80% or more): 1 µg/mL (≈ 1.08 µM); MIC (Scytalidium hyalinum; clinical isolate CBS601.85, growth inhibited by 80% or more): 0.5 µg/mL (≈ 0.541 µM); MIC (Scytalidium hyalinum; clinical isolate CBS619.84, growth inhibited by 80% or more): 0.5 µg/mL (≈ 0.541 µM); GM (geometric mean of MIC) (Scytalidium hyalinum; geometric mean of the 4 strains measured): 0.59 µg/mL; MIC range (Scytalidium hyalinum; range of the 4 strains measured): 0.5 to 1 µg/mL; MIC (Scytalidium dimidiatum; clinical isolate 530129): 0.25 µg/mL (≈ 0.271 µM); MIC (Scytalidium dimidiatum; clinical isolate 530142): 0.13 µg/mL (≈ 0.141 µM); MIC (Scytalidium dimidiatum; clinical isolate 530251): 0.25 µg/mL (≈ 0.271 µM); MIC (Scytalidium dimidiatum; clinical isolate 530621): 0.25 µg/mL (≈ 0.271 µM); MIC (Scytalidium dimidiatum; clinical isolate 530633): 0.25 µg/mL (≈ 0.271 µM); MIC (Scytalidium dimidiatum; clinical isolate 530914): 0.13 µg/mL (≈ 0.141 µM); MIC (Scytalidium dimidiatum; clinical isolate 530946): 0.25 µg/mL (≈ 0.271 µM); MIC (Scytalidium dimidiatum; clinical isolate 530999): 0.5 µg/mL (≈ 0.541 µM); MIC (Scytalidium dimidiatum; clinical isolate 531581): 0.25 µg/mL (≈ 0.271 µM); MIC (Scytalidium dimidiatum; clinical isolate 531869): 0.25 µg/mL (≈ 0.271 µM); MIC90 (Scytalidium dimidiatum): 0.25 µg/mL (≈ 0.271 µM)
c1ccc(-c2ccc(C(c3ccccc3)n3ccnc3)cc2)cc1 (stereo not drawn) [BFZ, bifonazole]	0.063 (≈ 0.203 µM)	0.063 (≈ 0.203 µM)	0.031 (≈ 0.0999 µM)	0.13 (≈ 0.419 µM)	0.063 (≈ 0.203 µM)	0.031 to 0.13 (≈ 0.0999 to 0.419 µM)	0.25 (≈ 0.805 µM)	0.13 (≈ 0.419 µM)	0.25 (≈ 0.805 µM)	0.25 (≈ 0.805 µM)	0.13 (≈ 0.419 µM)	0.13 (≈ 0.419 µM)	0.25 (≈ 0.805 µM)	0.13 (≈ 0.419 µM)	0.25 (≈ 0.805 µM)	0.13 (≈ 0.419 µM)	0.25 (≈ 0.805 µM)	
Clc1ccccc1C(c1ccccc1)(c1ccccc1)n1ccnc1 [CTZ, clotrimazole]	0.13 (≈ 0.377 µM)	0.13 (≈ 0.377 µM)	0.13 (≈ 0.377 µM)	0.25 (≈ 0.725 µM)	0.15 (≈ 0.435 µM)	0.13 to 0.25 (≈ 0.377 to 0.725 µM)	0.5 (≈ 1.45 µM)	0.5 (≈ 1.45 µM)	0.25 (≈ 0.725 µM)	0.5 (≈ 1.45 µM)	0.5 (≈ 1.45 µM)	0.5 (≈ 1.45 µM)	0.5 (≈ 1.45 µM)	0.25 (≈ 0.725 µM)	0.25 (≈ 0.725 µM)	0.25 (≈ 0.725 µM)	0.5 (≈ 1.45 µM)	
